# Experimental data taken from patent publication US12152270B2, “Neurotransmitter transport in probiotics” (Iowa State University Research Foundation, Inc., priority 2017, dated 2024).
# Experiments:
# [1] = test system: OCT-like uptake in L. reuteri; test: ASP+ fluorophore uptake (OCT-like) in L. reuteri; assay type: cell-based, Lactobacillus reuteri; conditions: for attenuation of ASP+ fluorophore uptake: 2 mg/ml, 24 hour biofilm
# Text: The fluorophore ASP^+[4-(4-(diethylamino)styryl)-N-methylpyridinium iodide] was obtained from Sigma Chemical Company (Sigma #D4318) and used as described in Duan et al., Drug Metabolism and Disposition, volume 43, pages 1773-1780, 2015 (herein incorporated by reference) with a slight modification in the ratio of ASP^+ and Trypan blue used.
# To verify if OCT-like uptake was responsible for the influx of ASP^+ in Lactobacilli, L. reuteri was pre-treated with D-22, an OCT inhibitor. In brief, Lactobacilli reuteri (obtained from American Type Culture Collection, #23272) were grown overnight at 37° C. in an aerobic environment in flat-bottomed 96-well plates in MRS medium. Following overnight incubation, the medium in each well was carefully removed in order to not overtly disturb the biofilm and a final concentration of 20 μM D-22 dissolved in IMDM or control medium was added. The plate was then incubated for 20 minutes at 37° C. in an aerobic environment. Next, ASP^+ fluorophore dissolved in IMDM was added and the plate was then placed into a BioTek Synergy H1 plate reader at 37° C. and read continuously for a total of 6 hours.
# (§1) Two other antidepressant drugs that are chemically unrelated to fluoxetine, duloxetine and amitriptyline, were tested for their action on PMAT- and OCT-like functionalities in Lactobacilli to determine if they may also be used as inhibitors. Cells were grown in 96-well plates for 24 hours to allow for biofilm formation as above. […] IDT307 or ASP^+ was then used to measure the effects of each antidepressant drug on the cells ability to take up the fluorophore.
# [2] = biological target: T1, recombinant PMAT (Homo sapiens, UniProt Q7RTT9); conditions: 20 μM, HEK293 embryonic kidney cells; cited from earlier work
# T1 construct: host or cells: HEK293 embryonic kidney cells (transfected, in the earlier report)
# T1 sequence (Q7RTT9 1-530): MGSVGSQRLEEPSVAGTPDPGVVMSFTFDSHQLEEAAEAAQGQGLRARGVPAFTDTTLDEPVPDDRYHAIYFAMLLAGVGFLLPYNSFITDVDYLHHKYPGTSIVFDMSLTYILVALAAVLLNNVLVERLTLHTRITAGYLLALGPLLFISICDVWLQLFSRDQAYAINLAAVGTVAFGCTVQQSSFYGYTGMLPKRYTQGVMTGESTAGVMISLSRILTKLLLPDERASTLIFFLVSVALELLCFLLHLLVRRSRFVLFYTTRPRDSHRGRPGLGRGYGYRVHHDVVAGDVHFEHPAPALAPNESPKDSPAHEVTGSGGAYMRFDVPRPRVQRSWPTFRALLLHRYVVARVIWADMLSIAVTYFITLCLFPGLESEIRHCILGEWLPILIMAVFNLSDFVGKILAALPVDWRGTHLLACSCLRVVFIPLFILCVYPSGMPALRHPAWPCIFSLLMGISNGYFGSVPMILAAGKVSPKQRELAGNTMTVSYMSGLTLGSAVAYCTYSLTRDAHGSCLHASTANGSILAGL
# [3] = test system: OCT-like uptake in L. salivarius biofilms; test: ASP+ fluorophore uptake (OCT-like) in L. salivarius biofilms; assay type: cell-based, Lactobacillus salivarius; conditions: for inhibition of ASP+ uptake: early and late biofilms
# Procedure: (§2) At the start of the assay, 0.2 ml of stationary phase overnight bacterial growth was inoculated into 9.8 ml of pre-warmed MRS, thoroughly mixed, and 0.2 ml aliquots added to individual wells of Corning flat clear-bottomed 96 well microplates (product #3904, Corning, Inc., Corning, NY, USA). Plates were then placed into a 37° C. humidified incubator. Following static incubation for either 6 or 24 hours, plates were removed from the incubator and the well supernatants were gently removed leaving the bacterial biofilm intact on the bottom surface of the individual clear plate wells. Subsequently, the PMAT-specific fluorophore IDT307 (Molecular Devices) or the OCT-specific fluorophore ASP^+ (Sigma-Aldrich) dissolved in IMDM and pre-warmed to 37° C. was gently added to appropriate wells (added along the well side so as not to disturb the biofilm). The plate was immediately placed into a BioTek Synergy H1 reader (Winooski, VT, USA) and measured using Gen5 software at the time intervals shown in the FIGS. 4-7. All assays were done at 37° C. unless otherwise noted and reads were performed as bottom fluorescence in relative fluorescence units (RFU). For IDT307, the chemical and masking dye were supplied pre-measured and the amount of IMDM used as a diluent was the same as indicated for the use of HBSS. […] Drug Metab Dispos. 2015; 43(11):1773-80, herein incorporated by reference, with the minor modification that the fluorophore/masking dye combination were prepared as follows: 100 μl of a 2 mg ASP^+ stock solution per ml of distilled water was first added to 9.9 ml of IMDM and mixed, followed by the addition of 10 μl of a 10 mM Trypan blue solution. The excitation/emission wavelengths used for IDT307 and ASP^+, respectively, were 440 nm/520 nm and 475 nm/609 nm.
# (§3) Plates were prepared as above in Example 4 and following 6 hours (FIGS. 8A and B for PMAT and OCT respectively) or 24 hours (FIGS. 8C and D for PMAT and OCT respectively) of incubation the media was gently removed and replaced with 100 μl of pre-warmed IMDM media with or without different concentrations of fluoxetine. The concentrations of fluoxetine were 0.3125 mM, 0.625 mM, 1.25 mM, or 2.5 mM. The plate was then incubated at 37° C. for 30 minutes. Following incubation, 100 μl of pre-warmed fluorophore was added to the appropriate wells. The plate was then immediate placed into the fluorescence reader and measured at 37° C.
# as §1
# [4] = test system: recombinant OCTs; conditions: 20 μM, HEK293 embryonic kidney cells; cited from earlier work
# [5] = test system: PMAT-like uptake in L. salivarius biofilms; test: IDT307 fluorophore uptake (PMAT-like) in L. salivarius biofilms; assay type: cell-based, Lactobacillus salivarius; conditions: for uptake of IDT307-associated fluorescence: 100 μM; for attenuation of IDT307 fluorophore uptake: 1 mg/ml, 24 hour biofilm; for inhibition of IDT307 uptake: early and late biofilms
# Text: For measurement of PMAT-like function, the IDT307 fluorophore-based Neurotransmitter Uptake Assay Kit (product #R8173, Molecular Devices, Sunnyvale, CA, USA) was used with modification. As it is intended for studies with mammalian cells, the kit recommends the use of phenol red-free Hank's Balanced Salt Solution (HBSS). Phenol red-free Iscove's Modified Dulbecco's Medium (IMDM; product #21056-023, Life Technologies, Carlsbad, CA, USA) was substituted for HBSS. […] IMDM was selected as it is a nutrient-rich, protein-free medium used in tissue culture that allows for robust growth of a wide variety of bacterial species in the absence of any protein additives common to most microbiology media.
# as §2, §3, §1
# [6] = test system: PMAT-like uptake in L. reuteri; conditions: 2 mg/ml, 24 hour biofilm
# Procedure: as §1
# [7] = test system: microbial communities of mice; test: In vivo administration of fluoxetine, 16S rRNA sequencing of microbial communities; conditions: male mice, oral, daily for 28 days
# Procedure: Fluoxetine was administered on a daily basis by the oral route to male mice for 28 days in order to determine if any modulation in microbial communities could be obtained.
# To classify the microbial communities, the genomes of isolated bacteria were sequenced and compared. Genomic DNA isolation was obtained using the PowerSoil DNA Isolation Kit (MoBio, Carlsbad, CA) on cecal and fecal samples. Assays were performed in accordance with the manufacturer's protocol with the following modifications: samples were incubated at 70° C. for 10 minutes immediately after addition of the C1 solution and the initial vortex step was extended to 20 minutes to thoroughly homogenize the samples. The purified bacterial genomic DNA extracts were quantified using a Qubit 2.0 Fluorometer (Life Technologies, Carlsbad, CA), and stored at −20° C. in 10 mM Tris buffer. For Illumina sequencing, bacterial genomic DNA was amplified using the Earth Microbiome Project barcoded primer set, adapted for the Illumina HiSeq2000 and MiSeq by adding nine extra bases in the adapter region of the forward amplification primer that support paired-end sequencing. The V4 region of the 16S rRNA gene (Illumina, 515F-806R) was amplified with region-specific primers that included the Illumina flowcell adapter sequences. The reverse amplification primer also contained a twelve base barcode sequence that supported pooling of up to 2,167 different samples in each lane. Each 25 μl PCR reaction contained 12 µl of MoBio PCR Water (Certified DNA-Free), 10 μl of 5 Prime HotMasterMix (1×), 1 μl of Forward Primer ([…], […]), 1 μl Golay Barcode Tagged Reverse Primer (5 μM concentration, […]), and […]. The conditions for PCR were as follows: 94° C. for 3 minutes to denature the DNA, with 35 cycles at 94° C. for 45 s, 50° C. for 60 s, and 72° C. for 90 s; with a final extension of 10 min at 72° C. to ensure complete amplification. The PCR amplicons were quantified using PicoGreen (Invitrogen) and a plate reader. Once quantified, different volumes of each of the products were pooled into a single tube so that each amplicon was represented equally. This pool was then cleaned up using UltraClean® PCR Clean-Up Kit (MoBIO), and quantified using the Qubit (Invitrogen). After quantification, the molarity of the pool was determined and diluted down to 2 nM, denatured, and then diluted to a final concentration of […] with a 10% PhiX spike for sequencing on the Illumina MiSeq.
# In total, 60 fecal samples, representing 20 samples for each time point (day 0, 15, and 28) with 10 samples for the control and treatment groups, respectively, were used for 16S rRNA gene amplicon sequencing using Illumina MiSeq with 151 bp paired-end sequencing technology. 16S rRNA gene PCR and library preparation and sequencing were completed at the Environmental Sample Preparation and Sequencing Facility at Argonne National Laboratory. Sequence analysis was performed using mothur version 1.39.3 following the mothur MiSeq SOP available at the mothur website. Briefly, contigs were joined with “make.contigs”, reads longer than 250 bp, harboring any ambiguous bases or with more than 8 consecutive homopolymers were excluded using “screen.seqs”. Reads were aligned to the SILVA NR128 reference database. Chimeric sequences were removed with “chimera.uchime” and the remaining reads were clustered into operational taxonomic units (OTUs) using a 97% similarity threshold and taxonomy was assigned to OTUs using the SILVA NR 128 reference database. […] For determination of differences between groups on community level, analysis of molecular variance (AMOVA) and analysis of similarity (ANOSIM) implemented in mothur were used. Heatmaps were generated with JColorGrid. For better taxonomic classification, the OTUs were searched against the 16S rRNA gene sequences of the Mouse Intestinal Bacterial Collection isolates (miBC) using BlastN.
# [8] = biofilms established over 24 hours
# [9] = concentrations higher than 0.625 mM
structure (smiles),measurement,setting,value
CCN1/C(=C/c2ccc3ccccc3[n+]2CC)C=Cc2ccccc21.[I-] [decynium-22],ability of the ASP+ fluorophore to enter into the cells (fluorescence),"[1]; 20 μM, 20 min pre-incubation, overnight biofilm, read 6 hours, all time points",reduced the ability of the ASP^+ fluorophore to enter into the cells
same,serotonin uptake through recombinant PMAT,[2],block serotonin uptake
same,peak increase in ASP+ uptake,"[3]; 20 μM, early (6 hour) biofilms",blunted
same,serotonin uptake through recombinant OCTs,[4],block serotonin uptake
same,peak increase in IDT307 uptake,"[5]; 20 μM, early (6 hour) biofilms",blunted
O=NO [sodium nitrite],uptake of IDT307-associated fluorescence,[5]; 6 hour biofilms,inhibited the rapid rise in IDT307-associated fluorescence
NCCc1c[nH]c2ccc(O)cc12 [serotonin],uptake of IDT307-associated fluorescence,[5]; 6 hour biofilms,markedly inhibited
"CN(C)CCC=C1c2ccccc2CCc2ccccc21 [Amitriptyline, amitriptyline]",attenuation of ASP+ fluorophore uptake,[1],much stronger inhibitory effect
same,attenuation of IDT307 fluorophore uptake,[5],much stronger inhibitory effect
CNCC[C@H](Oc1cccc2ccccc12)c1cccs1 [duloxetine],attenuation of IDT307 fluorophore uptake,[6],larger attenuation of fluorophore uptake
same,attenuation of ASP+ fluorophore uptake,[1],larger attenuation of fluorophore uptake
same,attenuation of ASP+ fluorophore uptake,"[3]; 1 mg/ml, 24 hour biofilm",some attenuation
same,attenuation of IDT307 fluorophore uptake,[5],some attenuation
"CCN(CC)c1ccc(C=Cc2cc[n+](C)cc2)cc1.[I-] [ASP^+, 4-(4-(diethylamino)styryl)-N-methylpyridinium iodide]",time of intracellular fluorescence decay after maximum,"[3]; 6 hour biofilms, 37° C.",2 to 3 h
same,time to maximum fluorescence intensity,"[3]; 6 hour biofilms, 37° C.",< 60 min
same,residence time of probe in biofilm,[3]; [8],> 6 h
"NC[C@H](O)c1ccc(O)c(O)c1 [NE, norepinephrine]",uptake of IDT307-associated fluorescence,[5]; 6 hour biofilms,markedly inhibited
CNCCC(Oc1ccc(C(F)(F)F)cc1)c1ccccc1 (stereo not drawn) [fluoxetine],inhibition of ASP+ uptake,[3]; concentrations below 0.625 mM,concentration-dependent inhibition
same,inhibition of ASP+ uptake,[3]; [9],total inhibition
same,overall effect on microbial communities,[7],shift of microbial communities towards dysbiosis
same,decrease of Lactobacillus OTU17 abundance under treatment,[7]; fecal samples,7.4 fold
same,number of OTUs different between control and fluoxetine group,[7]; fecal samples,121 OTUs
same,species richness and diversity estimators vs control group,[7]; fecal samples,No statistical significant differences
same,abundance of Firmicutes relative to Bacteroidetes,[7]; phylum level,trended (p=0.08) to be more abundant than Bacteroidetes
same,whole community level comparison with control (AMOVA and ANOSIM),[7]; p=0.02 and p=0.05,statistically significant differences
same,inhibition of IDT307 uptake,[5]; concentrations below 0.625 mM,concentration-dependent inhibition
same,inhibition of IDT307 uptake,[5]; [9],total inhibition
"CN(C)c1ccc(-c2cc[n+](C)cc2)cc1.[I-] [IDT307, 4-[p-(Dimethylamino)phenyl]-1-methylpyridinium iodide]",time of intracellular fluorescence decay after maximum,"[5]; 6 hour biofilms, 37° C.",2 to 3 h
same,time to maximum fluorescence intensity,"[5]; 6 hour biofilms, 37° C.",< 60 min
same,residence time of probe in biofilm,[5]; [8],> 6 h
